According to patent EP2905286A1, “Novel diazabicyclohydrocarbon-Pt complexes and the use thereof as pharmaceuticals” (Studiengesellschaft Kohle mbH, priority 2014, dated 2015):

How the values were obtained:
A2780 = assay: MTT cell viability assay; type: cell-based; conditions: A2780 cells, 72 h incubation
Protocol: (§1) The rate of cell-survival under the action of test compounds was evaluated by an improved MTT assay as previously described for 3-(4,5-dimethylthiazol-2-yl)-2,5-diphenyltetrazolium bromide (MTT, Applichem, Germany) (Mueller, H., Kassack, M. U., Wiese, M. J. Biomol. Screen. 2004, 9, 506-515).
(§2) The assay is based on the ability of viable cells to metabolize yellow MTT to violet formazane crystals that can be detected spectrophotometrically. In brief, A2780 (ECACC, Salisbury, UK) and A2780 CisR cells (established by exposure of A2780 cells to weekly cycles of 2 µmol/L cisplatin over a period of 24 weeks) were seeded at a density of 8,000 cells/well in 96well plates (Corning, Germany) in 90 µL drug-free complete medium. After an incubation period of 24 h at 37 °C under humidified air supplemented with 5% CO2, cells were exposed to dilutions of the test compounds in 100 µL/well. Stock solutions were prepared in a concentration of 10^-2 M in water, and serial dilutions were prepared by using sodium chloride 0.9%. Incubation was ended after 72 h and cell survival was determined by addition of 25 µL/well MTT solution (5 mg/mL in phosphate buffered saline). After an incubation period of 10 min at 37 °C, the medium was carefully removed. The intracellular formazan product was solubilized by adding 75 µl DMSO/well. Absorbance was measured at 544 nm and 690 nm with a FLUOstar microplate-reader (BMG LabTech, Offenburg, Germany). The absorbance of untreated control cells was taken as 100% viability. All tests were performed in triplicate.
(§3) Indicated are mean values ± standard error of the mean. Concentration/inhibition curves were fitted to the data by nonlinear regression analysis using the four parameter logistic equation (GraphPad Prism).

A2780 CisR cells = assay: MTT cell viability assay, cisplatin resistance model; type: cell-based; conditions: for IC50: A2780 CisR cells, 72 h incubation, MTT; for resistance factor: ratio of IC50 in A2780 CisR cells to IC50 in parental A2780 cells
Protocol: as §1, §2, §3
Values are means ± SEM derived from a representative experiment performed in triplicate. The resistance factor was calculated as the ratio of the IC50 value of the A2780 CisR cells and the IC50 value of the corresponding sensitive parental A2780 cell line.

[1] = Solubility observed during preparation; type: physicochemical; conditions: for solubility in solvents in general: most or all solvents (ambient temperature, including CH2Cl2 and THF; including DMSO)

Q: Which IC50 (A2780) does the source give for `N.N.O=C([O-])C1(C(=O)[O-])CCC1.[Pt+2]` [carboplatin, reference compound] here?
A: Its IC50 is 4.23 µM.

Q: And the IC50 (A2780 CisR cells)?
A: Its IC50 is 40.2 µM.

Q: And the resistance factor (A2780 CisR cells)?
A: The resistance factor was 9.50.

Q: With `[Cl][Pt]1([Cl])[N]2CC3C[N]1CC(C2)C31OCCO1` [compound 4, (Spiro[bispidin-9,2'-[1,3]dioxolane])platinum(II)dichloride] as the compound, how does the “solubility in solvents in general” value [1] read?
A: Its value is “insoluble in all solvents, including DMSO”.

Q: Which results are given for `C1NCC2CNCC1C2.CN(C)C=O.[Cl][Pt][Cl]` [1b, (C7H14N2)PtCl2·DMF]?
A: solubility in DMF [1]: dissolve increasingly well; solubility in DMSO [1]: dissolve increasingly well; solubility in solvents in general [1]: insoluble in most solvents; solubility in water [1]: dissolve increasingly well

Q: Which IC50 (A2780) does the source give for `N.N.[Cl][Pt][Cl]` [cisplatin, cis-(NH3)2PtCl2, reference compound] here?
A: The IC50 was 1.38 µM.

Q: With `C1NCC2CNCC1C2.[Cl][Pt][Cl]` [1a, (C7H14N2)PtCl2] as the compound, how does the IC50 (A2780) read?
A: The IC50 was 4.2 µM.

Q: And the IC50 (A2780 CisR cells)?
A: Its IC50 is 10.6 µM.

Q: What about the resistance factor (A2780 CisR cells) of the same compound?
A: Its resistance factor is 2.52.

Q: And the “solubility in DMF” value [1]?
A: Its value is “dissolve increasingly well”.

Q: What about the “solubility in DMSO” value [1] of the same compound?
A: The value was “dissolve increasingly well”.

Q: And the “solubility in solvents in general” value [1]?
A: The value was “insoluble in most solvents”.

Q: And the solubility in water [1]?
A: The solubility in water was “dissolve increasingly well”.

Q: For `O=C1[O][Pt]2([NH][C@@H]3CCCC[C@H]3[NH]2)[O]C1=O` (relative stereo) [oxaliplatin, trans-(R,R)-1,2-diamino-cyclohexane platinum(II)oxalate, reference compound], which IC50 (A2780) is on record?
A: The IC50 was 0.21 µM.

Q: What about the IC50 (A2780 CisR cells) of the same compound?
A: The IC50 was 0.95 µM.

Q: What about the resistance factor (A2780 CisR cells) of the same compound?
A: The resistance factor was 4.52.

Q: With `O=C([O-])C1(C(=O)[O-])CCC1.OC1(O)C2CNCC1CNC2.[Pt+2]` [compound 6, (Bispidin-9,9-diol)platinum(II)(1,1-cyclobutanedicarboxylate)] as the compound, how does the “solubility in DMF” value [1] read?
A: The value was “dissolves well”.

Q: What about the “solubility in DMSO” value [1] of the same compound?
A: The value was “dissolves well”.

Q: And the solubility in water [1]?
A: The solubility in water was “dissolves well”.

Q: For `C1NCC2CNCC1C2.O=C1[O][Pt][O]C(=O)C12CCC2` [2a, (C7H14N2)Pt{(O2C)2C4H6}], which IC50 (A2780) is on record?
A: The IC50 was 8.84 µM.

Q: And the IC50 (A2780 CisR cells)?
A: Its IC50 is 57.1 µM.

Q: What about the resistance factor (A2780 CisR cells) of the same compound?
A: Its resistance factor is 6.46.

Q: What about the “solubility in DMF” value [1] of the same compound?
A: Its value is “poor”.

Q: And the solubility in water [1]?
A: Its solubility in water is “more soluble in water than the dichloride 1”.

Q: Which IC50 (A2780) does the source give for `C1NCC2CNCC1C2.O=C1[O][Pt][O]C1=O` [compound 3, (C7H14N2)Pt(C2O4)] here?
A: Its IC50 is 7.24 µM.

Q: What about the IC50 (A2780 CisR cells) of the same compound?
A: Its IC50 is 35.3 µM.

Q: And the resistance factor (A2780 CisR cells)?
A: The resistance factor was 4.88.
